Results: patent EP0414913A1, “p-AMINOPHENOL DERIVATIVE AND PRODUCTION AND APPLICATION THEREOF” (OTSUKA PHARMACEUTICAL FACTORY, INC., priority 1989, dated 1990)

System: male Wistar rats
Assay: Antiinflammatory activity by air pouch technique (croton oil)
Format: in vivo
Conditions: Rattus norvegicus, 192 h, 25 mg/kg/day into the pouch in 5% gum arabic, once a day for 6 days, amount of exudate on day 8 vs control group, ** p<0.01, * p<0.05, read-out: Antiinflammatory rate (%)
Method: The antiinflammatory activity of the compound of the invention was determined by an air pouch technique generally comforming to the method described in the literature [Proc. Soc. Exp. Biol. Med., 82 , 328-333, 1953].
The test was carried out using male Wistar rats (average body weight 200 g, 7 animals per group). A thick paper sheet with an oval cutout (2 x 5 cm) was attached to the clipped back of the animal under pentobarbital anesthesia. The skin was picked up through the central cutout and 10 ml of air was injected subcutaneously to prepare an air pouch. Then, 1 ml of 2% croton oil, as a phlogogenic agent, was injected into the pouch. The paper sheet was removed and the animal was gently rotated in order that the croton oil would be thoroughly contacted with the inner wall of the pouch.
The test compound suspended in 5% gum arabic was administered into the pouch (25 mg/kg/day) once a day for 6 days beginning the day after preparation of the pouch. The group of animals subjected to the above treatment was designated as the experimental group.
On day 8, the animals were bled to death and the amount (ml) of exudate in the pouch was measured. The antiinflammatory rate was calculated with the result in the control group ( a group not receiving the test compound) as a reference according to the following equation. [formula]

Question: `CC(C)(C)c1cc(Nc2nccs2)cc(C(C)(C)CO)c1O` [Compound 3, 2-(1,1-Dimethylethyl)-6-(1,1-dimethyl-2-hydroxyethyl)-4-[N-(2-thiazolyl)amino]phenol] was tested. Which inhibition in vivo at 25 mg/kg/day did it give?
Answer: 71%

Question: `CC(=O)OCC(C)(C)c1cc(Nc2nccs2)cc(C(C)(C)C)c1O` [Compound 13, 2-(2-acetoxy-1,1-dimethylethyl)-6-(1,1-dimethylethyl)-4-(2-thiazolylamino)phenol] was tested. Which inhibition in vivo at 25 mg/kg/day did it give?
Answer: 60%

Question: How did the inhibition in vivo at 25 mg/kg/day turn out when `CC(=O)OCC(C)(C)c1cc(N(C(C)=O)c2nccs2)cc(C(C)(C)C)c1O` [Compound 14, 2-(2-acetoxy-1,1-dimethylethyl)-6-(1,1-dimethylethyl)-4-[N-acetyl-N-(2-thiazolyl)amino]phenol] was run?
Answer: 51%

Question: `CC(C)(C)c1cc(Nc2nc(CC(=O)O)cs2)cc(C(C)(C)CO)c1O` [Compound 15, 2-[3-(1,1-dimethylethyl)-5-(1,1-dimethyl-2-hydroxyethyl)-4-hydroxyphenylamino]-4-thiazolylacetic acid] was tested. Which inhibition in vivo at 25 mg/kg/day did it give?
Answer: 32%

Question: How did the inhibition in vivo at 25 mg/kg/day turn out when `CC(C)(C)c1cc(Nc2nccnn2)cc(C(C)(C)CO)c1O` [Compound 11] was run?
Answer: 20%

Question: `CC(C)(C)c1cc(Nc2ccccc2)cc(C(C)(C)CO)c1O` [Compound 6] was tested. Which inhibition in vivo at 25 mg/kg/day did it give?
Answer: 14%

Question: `CC(C)(C)c1cc(Nc2cccnc2)cc(C(C)(C)CO)c1O` [Compound 8] was tested. Which inhibition in vivo at 25 mg/kg/day did it give?
Answer: 19%

Question: How did the inhibition in vivo at 25 mg/kg/day turn out when `CC(C)(C)c1cc(Nc2ncccn2)cc(C(C)(C)CO)c1O` [Compound 10] was run?
Answer: 24%

Question: For `CC(C)(C)c1cc(Nc2cnccn2)cc(C(C)(C)CO)c1O` [Compound 1, 2-(1,1-dimethylethyl)-6-(1,1-dimethyl-2-hydroxyethyl)-4-pyrazinylaminophenol], which inhibition in vivo at 25 mg/kg/day is on record?
Answer: 68%
